The values that follow come from patent US20200181671A1, “Method for Increasing Content of Mogroside V in Siraitia Grosvenorii Suspended Cells” (Guilin Layn Natural Ingredients Corp, priority 2017, published 2020).

Each structure is given as a SMILES string.

The test system of series [1] is Siraitia Grosvenorii Cell Culture System. Particulars: 500 mg/L; cited from earlier work.
Series [2] has as its system Siraitia grosvenorii suspended cells. Nature of the series: Content of mogroside II in Siraitia grosvenorii suspended cells at the peak of mogroside V, HPLC. Format: cell-based. Particulars: n = 5, x ± s. As to the method: Weighing 1.5 g Siraitia grosvenorii dry weight cells, adding 60% ethanol at a feed to liquid ratio of […], ultrasonically extracting for 40 min, extracting for 2 h at 90° C. in a slightly boiling state, repeating the extraction for 3 times, and combining the extracts to concentrate them to 5 mL in a rotary evaporator. The concentrate was filtered through a 0.22 μm filtration membrane, and then qualitative and quantitative analysis was performed using a high-performance liquid chromatograph.
Chromatographic conditions: The chromatographic column was a ZORBAX SBC C18 column, 4.6 mm×150 mm; the mobile phase was water-acetonitrile gradient elution (0-25 min, 13.5% to 35% acetonitrile), the flow rate was 0.8 mL/min; and the detection wavelength was 203 nm.

Series [3] shares this test system. Kind of series: Content (yield) of mogroside V in Siraitia grosvenorii suspended cells under different treatment conditions, HPLC. Format: cell-based. The protocol:
Weighing 1.5 g Siraitia grosvenorii dry weight cells, adding 60% ethanol at a feed-to-liquid ratio of 15:1, ultrasonically extracting for 40 min, extracting for 2 h at 90° C. in a slightly boiling state, repeating the extraction for 3 times, and combining the extracts to concentrate them to 5 mL in a rotary evaporator. The concentrate was filtered through a 0.22 μm filtration membrane, and then qualitative and quantitative analysis was performed using a high-performance liquid chromatograph.
Chromatographic conditions: The chromatographic column was an inverted C18 column, 4.6 mm×250 mm; the mobile phase was water-acetonitrile at a ratio of 78:22, the flow rate was 1.0 mL/min; and the detection wavelength was 203 nm.

The test system is the same in series [4]. Described as above. Format: cell-based. Particulars: suspended cells in the logarithmic growing period treated with methyl jasmonate alone.
The test system of another series is pueraria suspended cells. As to conditions: 1.0 mg/L; cited from earlier work.
In series [5] the test system is Taxus chinensis suspended cells. As to conditions: 100 μmol/L; cited from earlier work.
The subject of series [6] is suspension culture cells of Maackia amurensis Rupr. et Maxim. Particulars: 200 μmol/L, 9 days; cited from earlier work.

As for `N[C@@H](Cc1ccccc1)C(=O)O` [phenylalanine], the “increase of the total amount of mogroside V compared with the control group” value in series [1] is given as 260.38%.

Take `CC/C=C\CC1C(=O)CCC1CC(=O)OC` (stereo not shown) [Comparative Example 4]: the “Content of mogroside II” value in series [2] is 32.8 ± 2.6 g/L. Further, the “yield of mogroside V per unit time” value in series [3] (1 d of culture, n = 5, x ± s) was 31.1 ± 0.8 g/L; in series [3] (3 d of culture, n = 5, x ± s) it was 32.6 ± 0.9 g/L; in series [3] (5 d of culture, n = 5, x ± s), 33.2 ± 1.1 g/L; in series [3] (7 d of culture, n = 5, x ± s), 33.5 ± 1.5 g/L; in series [3] (9 d of culture, n = 5, x ± s), 39.5 ± 2.0 g/L; in series [3] (11 d of culture, n = 5, x ± s), 46.5 ± 1.8 g/L. The “yield of mogroside V per unit time” value in series [3] (13 d of culture, n = 5, x ± s) is on record as 51.6 ± 1.8 g/L; in series [3] (15 d of culture, n = 5, x ± s), 53.6 ± 1.5 g/L; in series [3] (17 d of culture, n = 5, x ± s) it was 54.5 ± 1.6 g/L; in series [3] (19 d of culture, n = 5, x ± s) it was 55.7 ± 1.8 g/L; in series [3] (21 d of culture, n = 5, x ± s), 56.8 ± 2.0 g/L; in series [3] (23 d of culture, n = 5, x ± s), 58.2 ± 2.2 g/L. Also, the “yield of mogroside V per unit time” value is 55.2 ± 2.4 g/L in series [3] (25 d of culture, n = 5, x ± s); 51.4 ± 2.5 g/L in series [3] (27 d of culture, n = 5, x ± s); 46.5 ± 2.4 g/L in series [3] (29 d of culture, n = 5, x ± s); 41.2 ± 2.5 g/L in series [3] (31 d of culture, n = 5, x ± s). Also, the “Peak yield (maximum yield) of mogroside V” value in series [3] (maximum over days 1 to 31 of culture, n = 5, x ± s) is 58.2 ± 2.2 g/L.

As for `CC/C=C\CC1C(=O)CCC1CC(=O)OC` (stereo not shown) [methyl jasmonate, Methyl jasmonate], the cell browning result in series [4] is given as “cell browning phenomenon was obvious”. Moreover, the “content of puerarin in the cell culture” value in the series on pueraria suspended cells is given as “increased”. The “increase of the content of paclitaxel” value in series [5] is listed as 10 times. In addition, in series [6], the “content of isoflavone, of that of the control of the same period” value is on record as 417.18%. The “total content of mogroside V” value in series [3] (inducer added alone, compared with the normal culture group, result in words) is given as “decreased compared with the normal culture group”. In addition, the “amount of synthesis of mogroside V per unit time” value in series [3] (suspended cells in the logarithmic growing period treated with methyl jasmonate alone) is listed as “increased”.
